Measured values from patent publication US10833345B2, “Materials for high-performance aqueous organic redox flow batteries” (UNIVERSITY OF SOUTHERN CALIFORNIA, priority 2016, dated 2020).
One block for each compound: values may come before it.

Legend:
[1] = Cyclic voltammetry of redox couples in alkaline electrolyte; type: physicochemical; conditions: for reduction potential: vs. mercury/mercuric oxide reference electrode (MMO)
Excerpt: The redox couples must be soluble in the alkaline electrolyte and must can undergo facile electron transfer.
The reduction potential for this couple in alkaline electrolyte is about −0.35 V vs. MMO.
While these compounds are not suitable for operation in acidic media because of the attendant polymerization reactions, these compounds perform well in alkaline media. […] The reduction potentials are quite negative relative to the last example of DHA. Consequently, this may be combined with AQDS to form a redox flow battery.
The electrochemical reversibility of such a Michael addition-resistant compound is shown in FIG. 29 for benzenedi-hydroxy tetracarboxylic acid also called hydroquinonetetracarboxylic acid (HQTC). […] The reduction potential of HQTC is such that it can be combined with DHA to create a redox flow battery with a cell voltage of 0.5 V (FIG. 30). Further HQTC can also be combined with the molecules from the quinoxaline family, and the flavin family to yield redox flow batteries with the cell voltage in the range of 0.5 to 1 V. 1,2,4-trihydroxyanthraquinone (Purpurin) is claimed to be a negative electrode material suitable for operation in alkaline media.

[2] = Rotating disk electrode study of hydroxyl-substituted anthraquinones in NaOH; type: physicochemical; conditions: Hydroxy anthraquinones in NaOH
Excerpt: Bifunctional redox molecules can also be a molecule with different redox properties in various ranges of potentials. This type of molecule is typified by the substituted hydroxy anthraquinones. In this regard, redox properties of several substituted anthraquinones have been studies. Electrochemistry experiments on the rotating disk electrode confirm the existence of two diffusion limited regions separated by a significant potential difference of 0.5 V to 1.0 V for certain types of substitutions (FIG. 6). For these molecules, two different redox processes occur at different potentials. Those molecules which have hydroxyl substituents in positions such as 1,2- and 1, 4- are particularly suitable for this purpose.
In Table 2 below we summarize the properties of these types of substituted anthraquinones that can be used on both as positive and negative electrode materials and others that have similar moieties but are not suitable for this type of deployment. The use of these molecules is suitable for use both acidic and alkaline media as shown by the rotating electrode studies.

[3] = Rate of crossover through NAFION 117 membrane; type: physicochemical; conditions: for crossover rate rank order: over 192 hours; for concentration appearing by crossover through the membrane: 192 hours
Excerpt: In another embodiment, compounds for the first redox couple 22 and/or the second redox couple 32 of FIG. 1 that reduce crossover between the anode and cathode compartments are provided. The crossover of the redox active species across the cell is largely determined by the molecular size. Examples of the redox compounds of this embodiment include, but are not limited to, para-toluene sulfonic acid (p-TSA), 2,6-dimethyl-1,4-dihydroxy benzene 3-mono-sulfonic acid, 1,2-dihydroxybenzene-3,5-disulfonic acid (BQDS), and anthraquinone-2,7-disulfonic acid (AQDS). The rate of crossover of the various types of positive electrode materials through a NAFION® 117 membrane was measured. The concentration of p-TSA appearing by crossover through the membrane is found to be much higher than that of the DMDHMS and BQDS (FIG. 6). […] The crossover rate measured over a period of 192 hours provided a rank order of p-TSA>DMDHMS≈BQDS>>AQDS. This rank order correlates with molecular size. The molecules of smaller size will diffuse more readily through the proton conducting membrane. Therefore, it is claimed that by modifying the size of the molecule we can suppress or reduce crossover. The redox active molecules that are prone to crossover may be modified in the size by either applying substituent groups. Such substituent groups can be simple methyl groups, sulfonic acid groups, alkyl groups, branched alkyls such as tertiary butyl, aromatic groups such as phenyl or benzyl groups, multi-ring aromatic groups such as naphthyl, anthracenyl (with or without substituents) amino, quaternary amino, keto, carboxyl and quinone groups. Examples of such redox active molecules with substituents that are enhanced in molecular size include the following compounds having formula II, III, and IV: […]

[4] = Cyclic voltammetry and redox cell states of AMBSA; type: physicochemical; conditions: FIG. 4
[5] = Charge and discharge cycling of organic redox flow cells; conditions: cell with anthraquinone-2,7-disulfonic acid, 0.5 M each
Excerpt: In another embodiment, the effects of crossover can be mitigated by using a mixture of positive and negative electrolyte materials in equimolar quantities at both the electrodes. When such a mixture is charged only the positive electrolyte component will undergo oxidation reaction at the positive electrode and the negative electrolyte material will undergo reduction reactions at the negative electrode. Since the concentration of the redox active species is identical even if crossover occurs, the positive electrolyte material occurred to the negative electrolyte side this change in concentration will be balanced by back diffusion. Thus, there might be self-discharge but no permanent capacity loss or compositional change of the electrolyte. Any two redox couples that qualify as positive and negative electrolyte materials can be mixed in equimolar proportions and used as the electrolyte. We have shown the feasibility of rechargeability of this type of mixed materials using DMDHMS and AQDS (FIG. 8). Nearly 100% of the charge input was returned during discharge.
Based on the electrode potentials, the DHA can serve as the negative electrolyte and the AQDS can serve as the positive electrolyte. […] The cell was charged and discharged at 8 mA/cm^2. The value of cell voltage was consistent with that expected from the reduction potential of the redox couples. […]

[6] = Crossover rate through NAFION 324 versus NAFION 117 membrane; type: physicochemical; conditions: NAFION 324 (25-micron EW 1500 layer, 150-micron EW 1100 layer) vs NAFION 117 (EW 1100)
Excerpt: In a variation, the reduced rate of crossover of the redox active molecules is achieved by using a membrane with a higher equivalent weight of NAFION®. The membrane NAFION® 324, has a 25-micron layer of equivalent weight 1500 and a 150-micron layer of equivalent weight 1100. The crossover rate of DMDHMS through such a membrane is just 0.65 of that through a homogenous NAFION® 117 membrane that has an equivalent weight of 1100 throughout the membrane.

[7] = alkaline electrolyte, 1 M potassium hydroxide

- electrochemical behavior (cyclic voltammogram) ([1]; 1 M sodium hydroxide): reversible electrochemical reaction
- reduction potential ([1]; 1 M sodium hydroxide): about −0.7 V
Compound: O=C1c2cccc(O)c2C(=O)c2c(O)cccc21 [DHA, 1,8-dihydroxyanthraquinone]

- Di-Couple Potential (yes/no) [2]: No
- E1/2(Volts) vs MMO [2]: −0.8 V
Compound: O=C1c2ccc(O)cc2C(=O)c2ccc(O)cc21 [2,6-dihydroxy anthraquinone]

Compound: O=C(O)c1c(O)c(C(=O)O)c(C(=O)O)c(O)c1C(=O)O [HQTC, hydroquinonetetracarboxylic acid]
- electrochemical behavior (cyclic voltammogram) [1, 7]: reversible electrochemical behavior with two different sets of peaks

- crossover rate rank order [3]: p-TSA>DMDHMS≈BQDS>>AQDS
Compound: O=S(=O)(O)c1cc(O)c(O)c(S(=O)(=O)O)c1 [BQDS, 1,2-dihydroxybenzene-3,5-disulfonic acid]

- Di-Couple Potential (yes/no) [2]: Yes
- Di-Couple Potential difference [2]: 840 mV
- E1/2(Volts) vs MMO [2]: −0.84 V
Compound: O=C1c2ccccc2C(=O)c2c(O)c(O)cc(O)c21 [1,2,4-trihydroxy anthraquinone]

Compound: O=C1c2ccccc2C(=O)c2c1ccc(O)c2O [difference1,2-dihydroxy anthraquinone, 1,2-dihydroxy anthraquinone]
- Di-Couple Potential (yes/no) [2]: Yes
- Di-Couple Potential difference [2]: 1 V
- E1/2(Volts) vs MMO [2]: −0.73 V

- electrochemical behavior (cyclic voltammogram) [1, 7]: reversible electrochemical behavior
Compound: c1ccc2nccnc2c1 [quinoxaline]

- cyclic voltammogram peaks [4]: two distinct peaks
Compound: O=C1c2ccccc2C(=O)c2cc(Cc3cc(O)cc(S(=O)(=O)O)c3O)ccc21 [AMBSA, 2-anthraquinonemethyl (p-benzoquinol sulfonic acid)]

- Di-Couple Potential (yes/no) [2]: No
- E1/2(Volts) vs MMO [2]: −0.65 V
Compound: O=C1c2cccc(O)c2C(=O)c2cccc(O)c21 [1,5-dihydroxy anthraquinone]

Compound: Cc1ccc(S(=O)(=O)O)cc1 [p-TSA, para-toluene sulfonic acid, reference compound]
- concentration appearing by crossover through the membrane [3]: much higher
- crossover rate rank order [3]: p-TSA>DMDHMS≈BQDS>>AQDS

- Di-Couple Potential (yes/no) [2]: Yes
- Di-Couple Potential difference [2]: 880 mV
- E1/2(Volts) vs MMO [2]: −0.63 V
Compound: O=C1c2ccccc2C(=O)c2c(O)ccc(O)c21 [1,4-dihydroxy anthraquinone]

- concentration appearing by crossover through the membrane [3]: not detected
- crossover rate rank order [3]: p-TSA>DMDHMS≈BQDS>>AQDS
- electrochemical behavior (cyclic voltammogram) ([1]; 1 M sodium hydroxide): reversible electrochemical behavior
- reduction potential ([1]; 1 M sodium hydroxide): about −0.35 V
Compound: O=C1c2ccc(S(=O)(=O)O)cc2C(=O)c2cc(S(=O)(=O)O)ccc21 [AQDS, anthraquinone-2,7-disulfonic acid]

- resistance to Michael reaction, cycles of charge and discharge [5]: at least 100 cycles
Compound: Cc1cc(O)c(C)c(S(=O)(=O)O)c1O [2,5-dimethyl-1,4-dihydroxybenzene-3-sulfonic acid]

Compound: O=C1c2ccccc2C(=O)c2c1cc(S(=O)(=O)O)c(O)c2O [1,2-dihydroxy, 3-sulfonic acid anthraquinone]
- Di-Couple Potential (yes/no) [2]: Yes
- Di-Couple Potential difference [2]: 930 mV
- E1/2(Volts) vs MMO [2]: −0.75 V

- crossover rate rank order [3]: p-TSA>DMDHMS≈BQDS>>AQDS
- crossover rate through NAFION 324 relative to NAFION 117 [6]: 0.65
Compound: Cc1cc(O)c(S(=O)(=O)O)c(C)c1O [DMDHMS, 2,6-dimethyl-1,4-dihydroxybenzene-3-sulfonic acid]
